This note sets out measurements from ChEMBL document CHEMBL3132742, “Hydrogen sulfide donors in research and drug development” (2014).

The test system of experiment [1] is HT-29. Description: Anticancer activity against human HT-29 cells xenografted in mouse model assessed as reduction in tumor volume relative to control. In kind it is functional. (Xenograft models place foreign cells or tissue in a host animal.)
Experiment [2] concerns HT-29. Description: Anticancer activity against human HT-29 cells xenografted in mouse model assessed as suppression of cancer cell growth relative to control. In kind it is functional.

With `O=C(CCCO[N+](=O)[O-])Oc1ccccc1C(=O)Oc1ccc(-c2cc(=S)ss2)cc1`, the “inhibition (INH)” value in experiment [1] is on record as 85%. For the same molecule, in experiment [2], the “fold change (FC)” value came out at 9000.
